Data on 16 compounds can be found in PubChem BioAssay (NCI).

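Five concentrations, 48 hours, 96-well plates. The concentration for 50% growth inhibition is given as GI50. The concentration for full growth arrest is given as TGI.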 Bounds are passed on as bounds.

Assay in all cases: inhibition of tumour cell growth, NCI panel, 48 h
Test [1] concerns KM12 colon.
Test [2] deals with U251 CNS.
The subject of test [3] is UO-31 renal.
In test [4] the test system is TK-10 renal.
The subject of test [5] is K-562 leukemia.
In test [6] the test system is HCT-116 colon.
Test [7] has as its system HOP-62 NSCLC.
Test [8] has as its system SF-268 CNS.

For the compound `COC(=O)c1cc(Cl)ccc1NC(=O)c1ccc([N+](=O)[O-])cc1`, the TGI in test [1] is 51.7 µM; in test [2], 22.2 µM; in test [3] it was 38.7 µM; in test [4], 40.6 µM; in test [5], > 100 µM; in test [6] it was 17.9 µM. In test [7], this compound returned a TGI of 38.8 µM.

For `C[C@]12CCC3[C@@H](CC[C@@H]4c5nonc5CC[C@]34C)C1C/C(=N/O)C2=O` (stereo partly specified), the TGI in test [8], in test [1], in test [2], in test [3], in test [4] and in test [5] was > 100 µM each time. The TGI in test [6] and in test [7] was > 100 µM in each case.

On to `O=CC1CCCc2ccccc21` (stereo unspecified), for which the TGI in test [8] was > 31.6 µM; in test [1], > 100 µM; in test [2], > 59.4 µM; in test [3], > 100 µM; in test [4] it was > 100 µM; in test [5] it was > 100 µM. In addition, the TGI in test [6] was > 77.2 µM; in test [7] it was > 100 µM.

On to `Cc1ccc(C)c(NC(=O)CC/C(=N\NC(=O)c2c(O)ccc3ccccc23)C(C)C(=O)c2ccc(O)cc2)c1` (stereo unspecified), for which the TGI in test [8], in test [1], in test [2], in test [3], in test [4] and in test [5] was > 100 µM each time. The TGI in test [6] and in test [7] was > 100 µM in each case.

As to `O=C1CC(S(=O)(=O)O)C=C1Nc1cccc(Cl)c1` (stereo unspecified), the TGI in test [8], in test [1], in test [2], in test [3], in test [4] and in test [5] was > 100 µM in each case. Moreover, the TGI in test [6] and in test [7] was > 100 µM in each case.

On to `CC1=C2C(=CC(C)(C)C2O)C(=O)C(C)(O)C12CC2` (stereo unspecified), for which the TGI was determined as 0.0667 µM in test [8]; 0.109 µM in test [1]; 0.102 µM in test [2]; 0.0291 µM in test [3]; 0.14 µM in test [4]; 0.154 µM in test [5]. In addition, the figures for the TGI in test [6] and in test [7] were 0.188 µM and 0.0447 µM, respectively. Moreover, in test [2], the GI50 is 0.00775 µM.

On to `[N-]=[N+]=NC(CI)c1cn([C@H]2C[C@H](O)[C@@H](CO)O2)c(=O)[nH]c1=O` (stereo partly specified), for which the TGI in test [1], in test [2], in test [3], in test [4], in test [5] and in test [6] was > 100 µM each time. Also, the TGI in test [7] was > 100 µM.

`O=CN/C=C/c1ccc(O)c(O)c1`: the TGI in test [8], in test [1], in test [2], in test [3], in test [4] and in test [5] was > 100 µM in each case. In addition, the TGI in test [6] and in test [7] was > 100 µM throughout.

On to `COC(=O)C1=C(c2cc(OC)c(OC)c(OC)c2)OC(c2ccc(OC)c(OC)c2)C1` (stereo unspecified), for which the TGI in test [8], in test [1], in test [2], in test [3], in test [4] and in test [5] was > 100 µM each time. Moreover, the TGI in test [6] and in test [7] was > 100 µM each time.

In the case of `COc1ccc(C2=NN(c3ccccc3)C[N+](c3ccc(OC)cc3)=N2)cc1`, the TGI is > 100 µM in test [8]; 54.7 µM in test [1]; 49.8 µM in test [2]; 71.1 µM in test [3]; > 100 µM in test [4]; 63.1 µM in test [5]. In addition, the TGI in test [6] and in test [7] was > 100 µM each time.

For `CC(=O)C1C(=O)C(=O)N(c2ccccc2C(C)C)C1=O` (stereo unspecified), the TGI in test [8], in test [1], in test [2], in test [3], in test [4] and in test [5] was > 100 µM in each case. For the same compound, the TGI in test [6] and in test [7] was > 100 µM in each case.

Regarding `CN1c2ccccc2N(C)C23N(C)c4ccccc4N(C)C12N(C)c1ccccc1N3C` (stereo unspecified), the TGI in test [8], in test [1], in test [2], in test [3], in test [4] and in test [5] was > 100 µM each time. The TGI in test [6] and in test [7] was > 100 µM each time.

`C=C1c2[nH]c3c([N+](=O)[O-])c(OC)ccc3c2CCN1C(C)=O`: the TGI in test [8], in test [1], in test [2], in test [3], in test [4] and in test [5] was > 100 µM throughout. Besides, the TGI in test [6] and in test [7] was > 100 µM in each case.

As for `Cc1cc(Cl)ccc1NC(=O)CC/C(CC(=O)C(C)C)=N\NC(=O)C[n+]1ccccc1`, the TGI in test [8], in test [1], in test [2], in test [3], in test [4] and in test [5] was > 100 µM each time. In addition, the TGI in test [6] and in test [7] was > 100 µM in each case.

`CN(/N=C/c1cccc2cccnc12)c1ccccc1`: the TGI in test [8], in test [1], in test [2], in test [3], in test [4] and in test [5] was > 100 µM each time. The TGI in test [7] is > 100 µM.

For the compound `O=S1(=O)OCCOS(=O)(=O)C1Cc1ccccc1`, the TGI in test [8], in test [1], in test [2], in test [3], in test [4] and in test [5] was > 100 µM in each case. For the same compound, the TGI in test [6] and in test [7] was > 100 µM in each case.
